We go through 19 molecules from patent publication US20100069341A1, “TETRAHYDRO-PYRANOPYRAZOLE CANNABINOID MODULATORS” (priority 2005, published 2010).

Structures are written as SMILES. Where two headings read alike, the source gives them in different places.

The target of test [1] is T1, Cannabinoid CB1 Receptor (Homo sapiens, UniProt P21554).
T1 construct: expressed in transfected cells; semi-purified membrane pellet
Description: Binding assay, cannabinoid CB1 receptor ([3H]-CP-55,940 displacement, SK-N-MC cell membranes). As to conditions: for inhibition at 0.2 µM: read-out: Cannabinoid CB1 Receptor Binding, percent inhibition. The procedure:
(§1) Binding Assay for CB1 or CB2 Agonists or Inverse Agonists
(§2) The human CB1 and CB2 receptors were stably expressed in SK-N-MC cells transfected with pcDNA3 CB-1 (human) or pcDNA3 CB-2 (human). The cells were grown in T-180 cell culture flasks under standard cell culture conditions at 37° C. in a 5% CO2 atmosphere. The cells were harvested by trysinization and homogenized in a homogenization buffer (10 mM Tris, 0.2 mM MgCl2, 5 mM KCl, with protease inhibitors aprotinin, leupeptin, pepstatin A and bacitracin) and centrifuged (2000 g). The supernatant was then centrifuged in 2M sucrose (31,300 g) to produce a semi-purified membrane pellet. The pellet was resuspended in homogenization and store at −80° C.
On the day of the assay, the pellet was thawed on ice and diluted in assay buffer (50 mM Tris-HCl, 5 mM MgCl2, 2.5 mM EDTA, 0.5 mg/mL fatty acid free bovine serum albumin, pH 7.5). […] The plate was covered and incubated for 90 minutes at 30° C. The contents were then aspirated onto a Packard Unifilter GF/C filter bottom plate prewet with 0.5% polyethyleneimine. The wells of the polypropylene plate were rinsed and aspirated seven times with a 0.9% saline-0.5% Tween 20 solution. The Unifilter plate was dried, a scintillation cocktail was added to each well and the counts representing binding were quantitated in a TopCount scintillation counter.
For compounds tested, an IC50 binding value was obtained from percent inhibition studies in which various test concentrations were used. The binding value (in μM) was calculated by linear regression.

Test [2] deals with T2, Cannabinoid CB2 Receptor (Homo sapiens, UniProt P34972).
T2 construct: expressed in transfected cells; semi-purified membrane pellet
Description: Binding assay, cannabinoid CB2 receptor ([3H]-CP-55,940 displacement, SK-N-MC cell membranes). Conditions: test concentration of 0.2 μM; human CB2 in SK-N-MC membranes; read-out: Cannabinoid CB2 Receptor Binding, percent inhibition. Here is the method: as §1, §2
On the day of the assay, the pellet was thawed on ice and diluted in assay buffer (50 mM Tris-HCl, 5 mM MgCl2, 2.5 mM EDTA, 0.5 mg/mL fatty acid free bovine serum albumin, pH 7.5). The diluted membrane was added with buffer, test compound or standard and the radioligand [H]^3+-CP-55,940 (0.2 nM) to the wells of a 96-well polypropylene plate. Non-specific binding was measured in wells containing 10 uM WIN 55,212. The plate was covered and incubated for 90 minutes at 30° C. The contents were then aspirated onto a Packard Unifilter GF/C filter bottom plate prewet with 0.5% polyethyleneimine. The wells of the polypropylene plate were rinsed and aspirated seven times with a 0.9% saline-0.5% Tween 20 solution. The Unifilter plate was dried, a scintillation cocktail was added to each well and the counts representing binding were quantitated in a TopCount scintillation counter.
For compounds tested, an IC50 binding value was obtained from percent inhibition studies in which various test concentrations were used. The binding value (in μM) was calculated by linear regression. For compounds without an IC50 binding value, the percent inhibition (in %) was obtained at a test concentration of 0.2 μM.

The mark [3] stands for this setting: test concentration of 0.2 μM, human CB1 in SK-N-MC membranes.

T1 sequence (P21554 whole entry): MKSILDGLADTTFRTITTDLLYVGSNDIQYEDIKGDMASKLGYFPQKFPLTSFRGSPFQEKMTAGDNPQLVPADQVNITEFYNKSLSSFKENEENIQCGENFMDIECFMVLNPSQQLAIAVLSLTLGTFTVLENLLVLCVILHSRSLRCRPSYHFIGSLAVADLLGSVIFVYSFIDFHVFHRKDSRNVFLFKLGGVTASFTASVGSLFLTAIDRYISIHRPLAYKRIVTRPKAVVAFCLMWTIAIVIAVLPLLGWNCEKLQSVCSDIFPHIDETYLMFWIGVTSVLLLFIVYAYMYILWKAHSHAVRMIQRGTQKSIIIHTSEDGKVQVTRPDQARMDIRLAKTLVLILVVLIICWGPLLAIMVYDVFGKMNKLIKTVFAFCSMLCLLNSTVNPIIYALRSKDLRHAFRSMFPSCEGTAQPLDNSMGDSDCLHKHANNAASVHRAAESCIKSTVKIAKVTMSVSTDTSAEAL
T2 sequence (P34972 whole entry): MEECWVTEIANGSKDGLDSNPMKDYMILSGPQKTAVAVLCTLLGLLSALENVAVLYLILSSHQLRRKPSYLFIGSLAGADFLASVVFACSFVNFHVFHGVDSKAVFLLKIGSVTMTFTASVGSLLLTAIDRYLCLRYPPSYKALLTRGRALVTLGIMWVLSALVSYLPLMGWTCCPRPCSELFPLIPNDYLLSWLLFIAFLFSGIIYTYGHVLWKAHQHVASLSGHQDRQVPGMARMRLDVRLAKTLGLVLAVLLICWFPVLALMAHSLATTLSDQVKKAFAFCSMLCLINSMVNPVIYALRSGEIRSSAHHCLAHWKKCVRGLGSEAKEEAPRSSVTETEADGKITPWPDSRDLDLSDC

For the molecule `C[C@H](NC(=O)c1nn(-c2ccc(Cl)cc2Cl)c2c1COC/C2=C\c1ccc(F)cc1)c1ccccc1` [Cpd 1, (7Z)-1-(2,4-dichloro-phenyl)-7-(4-fluoro-benzylidene)-1,4,6 7-tetrahydro-pyrano[4,3-c]pyrazole-3-carboxylic acid [(1S)-1-phenyl-ethyl]-amide], the inhibition (as a rule, how much of the control response was suppressed) at 0.2 µM turned out to be 54% in test [1] (setting [3]) and 6% in test [2].

As for `C[C@@H](NC(=O)c1nn(-c2ccc(Cl)cc2Cl)c2c1COC/C2=C\c1ccc(F)cc1)c1ccccc1` [Cpd 2, (7 Z)-1-(2,4-dichloro-phenyl)-7-(4-fluoro-benzylidene)-1,4,6,7-tetrahydro-pyrano[4,3-c]pyrazole-3-carboxylic acid [(1R)-1-phenyl-ethyl]-amide], the IC50 (as a rule, the midpoint of a concentration-inhibition curve) in test [1] came to 13 nM. In addition, the inhibition at 0.2 µM in test [1] (setting [3]) came out at 87%; in test [2], 23%.

With `O=C(N[C@@H]1CCC[C@H]1O)c1nn(-c2ccc(Cl)cc2Cl)c2c1COC/C2=C\c1ccc(F)cc1` [Cpd 3, (7Z)-1-(2,4-dichloro-phenyl)-7-(4-fluoro-benzylidene)-1,4,6,7-tetrahydro-pyrano[4,3-c]pyrazole-3-carboxylic acid [(1R,2R)-2-hydroxy-cyclopentyl]-amide], the results for the inhibition at 0.2 µM in test [1] (setting [3]) and in test [2] were 32% and 0%, respectively.

As for `O=C(N[C@H]1c2ccccc2C[C@H]1O)c1nn(-c2ccc(Cl)cc2Cl)c2c1COC/C2=C\c1ccc(F)cc1` [Cpd 4, (7Z)-1-(2,4-dichloro-phenyl)-7-(4-fluoro-benzylidene)-1,4,6,7-tetrahydro-pyrano[4,3-c]pyrazole-3-carboxylic acid [(1S,2R)-2-hydroxy-indan-1-yl]-amide], the inhibition at 0.2 µM was 64% in test [1] (setting [3]) and 19% in test [2].

`O=C(N[C@@H]1c2ccccc2C[C@@H]1O)c1nn(-c2ccc(Cl)cc2Cl)c2c1COC/C2=C\c1ccc(F)cc1` [Cpd 5, (7Z)-1-(2,4-dichloro-phenyl)-7-(4-fluoro-benzylidene)-1,4,6,7-tetrahydro-pyrano[4,3-c]pyrazole-3-carboxylic acid [(1R,2S)-2-hydroxy-indan-1-yl)-amide]: the IC50 in test [1] came out at 30 nM. The inhibition at 0.2 µM was found to be 82% in test [1] (setting [3]) and 28% in test [2].

In the case of `O=C(NCc1ccccn1)c1nn(-c2ccc(Cl)cc2Cl)c2c1COC/C2=C\c1ccc(F)cc1` [Cpd 6, (7Z)-1-(2,4-dichloro-phenyl)-7-(4-fluoro-benzylidene)-1,4,6,7-tetrahydro-pyrano[4,3-c]pyrazole-3-carboxylic acid (pyridin-2-ylmethyl)-amide], the values for the inhibition at 0.2 µM in test [1] (setting [3]) and in test [2] were 37% and 25%, respectively.

`O=C(NN1CCCCC1)c1nn(-c2ccc(Cl)cc2Cl)c2c1COC/C2=C\c1ccc(F)cc1` [Cpd 7, (7Z)-1-(2,4-dichloro-phenyl)-7-(4-fluoro-benzylidene)-1,4,6,7-tetrahydro-pyrano[4,3-c]pyrazole-3-carboxylic acid piperidin-1-ylamide]: the IC50 in test [1] is 40 nM. For the same molecule, the figures for the inhibition at 0.2 µM in test [1] (setting [3]) and in test [2] were 79% and 8%, respectively.

As for `O=C(c1nn(-c2ccc(Cl)cc2Cl)c2c1COC/C2=C\c1ccc(F)cc1)N1CCCCC1` [Cpd 8, (7Z)-[1-(2,4-dichloro-phenyl)-7-(4-fluoro-benzylidene)-1,4,6,7-tetrahydro-pyrano[4,3-c]pyrazol-3-yl]-piperidin-1-yl-methanone], the figures for the inhibition at 0.2 µM in test [1] (setting [3]) and in test [2] were 45% and 7%, respectively.

As to `O=C(NN1CCCC1)c1nn(-c2ccc(Cl)cc2Cl)c2c1COC/C2=C\c1ccc(F)cc1` [Cpd 9, (7Z)-1-(2,4-dichloro-phenyl)-7-(4-fluoro-benzylidene)-1,4,6,7-tetrahydro-pyrano[4,3-c]pyrazole-3-carboxylic acid pyrrolidin-1-ylamide], the inhibition at 0.2 µM in test [1] (setting [3]) amounted to 58%; in test [2], 0%.

Turning to `O=C(c1nn(-c2ccc(Cl)cc2Cl)c2c1COC/C2=C\c1ccc(F)cc1)N1CCCC1` [Cpd 10, (7Z)-[1-(2,4-dichloro-phenyl)-7-(4-fluoro-benzylidene)-1,4,6,7-tetrahydro-pyrano[4,3-c]pyrazol-3-yl]-pyrrolidin-1-yl-methanone], the inhibition at 0.2 µM in test [1] (setting [3]) worked out at 33%; in test [2], 14%.

As for `O=C(NN1CCCCC1)c1nn(-c2ccc(Cl)cc2)c2c1COC/C2=C\c1ccc(F)cc1` [Cpd 11, (7Z)-1-(4-chloro-phenyl)-7-(4-fluoro-benzylidene)-1,4,6,7-tetrahydro-pyrano[4,3-c]pyrazole-3-carboxylic acid piperidin-1-ylamide], the inhibition at 0.2 µM in test [1] (setting [3]) amounted to 55%; in test [2] it was 6%.

In the case of `C[C@@H](NC(=O)c1nn(-c2ccc(Cl)cc2)c2c1COC/C2=C\c1ccc(F)cc1)c1ccccc1` [Cpd 12, (7Z)-1-(4-chloro-phenyl)-7-(4-fluoro-benzylidene)-1,4,6,7-tetrahydro-pyrano[4,3-c]pyrazole-3-carboxylic acid [(1R)-1-phenyl-ethyl]-amide], the IC50 in test [1] amounted to 50 nM. For the same molecule, the inhibition at 0.2 µM stood at 81% in test [1] (setting [3]) and 5% in test [2].

In test [1], `C[C@@H](NC(=O)c1nn(-c2ccc(Cl)cc2)c2c1COC/C2=C\c1ccc(F)cc1)C1CCCCC1` [Cpd 13, (7Z)-1-(4-chloro-phenyl)-7-(4-fluoro-benzylidene)-1,4,6,7-tetrahydro-pyrano[4,3-c]pyrazole-3-carboxylic acid [(1R)-1-cyclohexyl-ethyl]-amide] yielded an IC50 of 20 nM. The inhibition at 0.2 µM in test [1] was found to be 84%; in test [2], 25%.

With `CN(C(=O)c1nn(-c2ccc(Cl)cc2)c2c1COC/C2=C\c1ccc(F)cc1)c1ccccc1` [Cpd 14, (7Z)-1-(4-chloro-phenyl)-7-(4-fluoro-benzylidene)-1,4,6,7-tetrahydro-pyrano[4,3-c]pyrazole-3-carboxylic acid methyl-phenyl-amide], the values for the inhibition at 0.2 µM in test [1] (setting [3]) and in test [2] were 49% and 7%, respectively.

`O=C(NN1CC2CCCC2C1)c1nn(-c2ccc(Cl)cc2)c2c1COC/C2=C\c1ccc(F)cc1` (stereo not drawn) [Cpd 15, (7Z)-1-(4-chloro-phenyl)-7-(4-fluoro-benzylidene)-1,4,6,7-tetrahydro-pyrano[4,3-c]pyrazole-3-carboxylic acid (hexahydro-cyclopenta[c]pyrrol-2-yl)-amide]: the IC50 in test [1] worked out at 80 nM. Also, the inhibition at 0.2 µM in test [1] (setting [3]) was 81%; in test [2], 18%.

Take `O=C(NN1CCCC1)c1nn(-c2ccc(Cl)cc2)c2c1COC/C2=C\c1ccc(F)cc1` [Cpd 16, (7Z)-1-(4-chloro-phenyl)-7-(4-fluoro-benzylidene)-1,4,6,7-tetrahydro-pyrano[4,3-c]pyrazole-3-carboxylic acid pyrrolidin-1-ylamide]: the inhibition at 0.2 µM in test [1] (setting [3]) came to 44%; in test [2], 11%.

In test [1], `O=C(NN1CC2CCCC2C1)c1nn(-c2ccc(Cl)cc2Cl)c2c1COC/C2=C\c1ccc(F)cc1` (stereo not drawn) [Cpd 17, (7Z)-1-(2,4-dichloro-phenyl)-7-(4-fluoro-benzylidene)-1,4,6,7-tetrahydro-pyrano[4,3-c]pyrazole-3-carboxylic acid (hexahydro-cyclopenta[c]pyrrol-2-yl)-amide] returned an IC50 of 20 nM. In addition, the inhibition at 0.2 µM in test [1] (setting [3]) was 99%; in test [2], 29%.

For the molecule `O=C(c1nn(-c2ccc(Cl)cc2)c2c1COC/C2=C\c1ccc(F)cc1)N1CCC[C@@H]1CO` [Cpd 18, (7Z)-[1-(4-chloro-phenyl)-7-(4-fluoro-benzylidene)-1,4,6,7-tetrahydro-pyrano[4,3-c]pyrazol-3-yl]-[(2R)-2-hydroxymethyl-pyrrolidin-1-yl]-methanone], the results for the inhibition at 0.2 µM in test [1] (setting [3]) and in test [2] were 30% and 14%, respectively.

As to `O=C(c1nn(-c2ccc(Cl)cc2)c2c1COC/C2=C\c1ccc(F)cc1)N1CCC[C@H]1CO` [Cpd 19, (7Z)-[1-(4-chloro-phenyl)-7-(4-fluoro-benzylidene)-1,4,6,7-tetrahydro-pyrano[4,3-c]pyrazol-3-yl]-[(2S)-2-hydroxymethyl-pyrrolidin-1-yl]-methanone], the inhibition at 0.2 µM in test [1] (setting [3]) is 51%; in test [2] it was 13%.
